What is called EC50 is the concentration at which the effect is half-maximal.

In assay [1] the target is T1, HCV NS3/4A protease complex, BMS strain (UniProt P27958, species not given/STRAIN_BMS).
T1 construct: DNA encoding the recombinant HCV NS3/4A protease complex (amino acids 1027 to 1711) for these strains [H77 and J4L6S]; fused on or other part: For the H77 and J4L6S constructs, a three-lysine solubilising tail at the NS4A C-terminus and a Ni-NTA-purifiable tag from pET21b
Briefly: FRET peptide assay to monitor HCV NS3/4A proteolytic activity (BMS strain). The format is biochemical, Hepatitis C virus (genotype 1a). The source says:
Generation of Recombinant HCV NS3/4A Protease Complex
HCV NS3 protease complexes, derived from the BMS strain, H77 strain or J4L6S strain, were generated, as described below. These purified recombinant proteins were generated for use in a homogeneous assay (see below) to provide an indication of how effective compounds of the present disclosure would be in inhibiting HCV NS3 proteolytic activity.
Serum from an HCV-infected patient was obtained from Dr. T. Wright, San Francisco Hospital. An engineered full-length cDNA (compliment deoxyribonucleic acid) template of the HCV genome (BMS strain) was constructed from DNA fragments obtained by reverse transcription-PCR (RT-PCR) of serum RNA (ribonucleic acid) and using primers selected on the basis of homology between other genotype 1a strains. From the determination of the entire genome sequence, a genotype 1a was assigned to the HCV isolate according to the classification of Simmonds et al. (See P Simmonds, K A Rose, S Graham, S W Chan, F McOmish, B C Dow, E A Follett, P L Yap and H Marsden, J. Clin. Microbiol., 31(6), 1493-1503 (1993)). […] The infectious clones, H77 (1a genotype) and J4L6S (1b genotype) were obtained from R. Purcell (NIH) and the sequences are published in Genbank (AAB67036, see Yanagi, M., Purcell, R. H., Emerson, S. U. and Bukh, J. Proc. Natl. Acad. Sci. U.S.A. 94(16), 8738-8743 (1997); AF054247, see Yanagi, M., St Claire, M., Shapiro, M., Emerson, S. U., Purcell, R. H. and Bukh, J, Virology 244 (1), 161-172. (1998)).
The H77 and J4L6S strains were used for production of recombinant NS3/4A protease complexes. DNA encoding the recombinant HCV NS3/4A protease complex (amino acids 1027 to 1711) for these strains were manipulated as described by P. Gallinari et al. (see Gallinari P, Paolini C, Brennan D, Nardi C, Steinkuhler C, De Francesco R. Biochemistry. 38(17):5620-32, (1999)). Briefly, a three-lysine solubilizing tail was added at the 3′-end of the NS4A coding region. The cysteine in the P1 position of the NS4A-NS4B cleavage site (amino acid 1711) was changed to a glycine to avoid the proteolytic cleavage of the lysine tag. Furthermore, a cysteine to serine mutation was introduced by PCR at amino acid position 1454 to prevent the autolytic cleavage in the NS3 helicase domain. The variant DNA fragment was cloned in the pET21b bacterial expression vector (Novagen) and the NS3/4A complex was expressed in Escherichia coli strain BL21 (DE3) (Invitrogen) following the protocol described by P. Gallinari et al. (see Gallinari P, Brennan D, Nardi C, Brunetti M, Tomei L, Steinkuhler C, De Francesco R., J. Virol. 72(8):6758-69 (1998)) with modifications. Briefly, the NS3/4A protease complex expression was induced with 0.5 millimolar (mM) Isopropyl β-D-1-thiogalactopyranoside (IPTG) for 22 hours (h) at 20° C. A typical fermentation (1 Liter (L)) yielded approximately 10 grams (g) of wet cell paste. The cells were resuspended in lysis buffer (10 mL/g) consisting of 25 mM N-(2-Hydroxyethyl)piperazine-N′-(2-Ethane Sulfonic acid) (HEPES), pH 7.5, 20% glycerol, 500 mM Sodium Chloride (NaCl), 0.5% Triton X-100, 1 microgram/milliliter (“μg/mL”) lysozyme, 5 mM Magnesium Chloride (MgCl2), 1 μg/mL DnaseI, 5 mM β-Mercaptoethanol (βME), Protease inhibitor—Ethylenediamine Tetraacetic acid (EDTA) free (Roche), homogenized and incubated for 20 minutes (min) at 4° C. The homogenate was sonicated and clarified by ultra-centrifugation at 235000 g for 1 h at 4° C. Imidazole was added to the supernatant to a final concentration of 15 mM and the pH adjusted to 8.0. The crude protein extract was loaded on a Nickel—Nitrilotriacetic acid (Ni-NTA) column pre-equilibrated with buffer B (25 mM HEPES, pH 8.0, 20% glycerol, 500 mM NaCl, 0.5% Triton X-100, 15 mM imidazole, 5 mM βME). The sample was loaded at a flow rate of 1 mL/min. The column was washed with 15 column volumes of buffer C (same as buffer B except with 0.2% Triton X-100). […]

Assay [2] has as its system HCV replicon in HUH-7 cells. Briefly: HCV replicon FRET assay. Type of assay: cell-based, Hepatitis C virus (strain 1b). The settings on record: HCV replicon cell assay, HUH-7, read-out: EC50 Range. From the text: Generation of HCV Replicon
An HCV replicon whole cell system was established as described by Lohmann V, Korner F, Koch J, Herian U, Theilmann L, Bartenschlager R., Science 285(5424):110-3 (1999). This system enabled us to evaluate the effects of our HCV Protease compounds on HCV RNA replication. Briefly, using the HCV strain 1b sequence described in the Lohmann paper (Assession number:AJ238799), an HCV cDNA was synthesized by Operon Technologies, Inc. (Alameda, Calif.), and the full-length replicon was then assembled in plasmid pGem9zf(+) (Promega, Madison, Wis.) using standard molecular biology techniques. The replicon consists of (i) the HCV 5′ UTR fused to the first 12 amino acids of the capsid protein, (ii) the neomycin phosphotransferase gene (neo), (iii) the IRES from encephalomyocarditis virus (EMCV), and (iv) HCV NS3 to NS5B genes and the HCV 3′ UTR. Plasmid DNAs were linearized with ScaI and RNA transcripts were synthesized in vitro using the T7 MegaScript transcription kit (Ambion, Austin, Tex.) according to manufacturer's directions. In vitro transcripts of the cDNA were transfected into the human hepatoma cell line, HUH-7. […] Resulting cell lines were characterized for positive and negative strand RNA production and protein production over time.
The HCV replicon FRET assay was developed to monitor the inhibitory effects of compounds described in the disclosure on HCV viral replication. HUH-7 cells, constitutively expressing the HCV replicon, were grown in Dulbecco's Modified Eagle Media (DMEM) (Gibco-BRL) containing 10% Fetal calf serum (FCS) (Sigma) and 1 mg/mL G418 (Gibco-BRL). Cells were seeded the night before (1.5×10^4 cells/well) in 96-well tissue-culture sterile plates. Compound and no compound controls were prepared in DMEM containing 4% FCS, 1:100 Penicillin/Streptomysin (Gibco-BRL), 1:100 L-glutamine and 5% DMSO in the dilution plate (0.5% DMSO final concentration in the assay). Compound/DMSO mixes were added to the cells and incubated for 4 days at 37° C. After 4 days, cells were first assessed for cytotoxicity using alamar Blue (Trek Diagnotstic Systems) for a CC50 reading. The toxicity of compound (CC50) was determined by adding 1/10th volume of alamar Blue to the media incubating the cells. After 4 h, the fluorescence signal from each well was read, with an excitation wavelength at 530 nm and an emission wavelength of 580 nm, using the Cytofluor Series 4000 (Perspective Biosystems). Plates were then rinsed thoroughly with Phosphate-Buffered Saline (PBS) (3 times 150 μl).
(In antiviral work, replicon cells carry a viral genome segment that copies itself.)

Where [3] appears, read: NS3/4A BMS strain, enzyme assay; read-out: IC 50 Range.
[4] abbreviates: read-out: IC 50 Range; NS3/4A BMS strain, enzyme assay.

Where two headings read alike, the source gives them in different places. Where only a bound is given, the exact number is not on record here.

T1 sequence (P27958 1027-1657, stated change not applied, one chain of several): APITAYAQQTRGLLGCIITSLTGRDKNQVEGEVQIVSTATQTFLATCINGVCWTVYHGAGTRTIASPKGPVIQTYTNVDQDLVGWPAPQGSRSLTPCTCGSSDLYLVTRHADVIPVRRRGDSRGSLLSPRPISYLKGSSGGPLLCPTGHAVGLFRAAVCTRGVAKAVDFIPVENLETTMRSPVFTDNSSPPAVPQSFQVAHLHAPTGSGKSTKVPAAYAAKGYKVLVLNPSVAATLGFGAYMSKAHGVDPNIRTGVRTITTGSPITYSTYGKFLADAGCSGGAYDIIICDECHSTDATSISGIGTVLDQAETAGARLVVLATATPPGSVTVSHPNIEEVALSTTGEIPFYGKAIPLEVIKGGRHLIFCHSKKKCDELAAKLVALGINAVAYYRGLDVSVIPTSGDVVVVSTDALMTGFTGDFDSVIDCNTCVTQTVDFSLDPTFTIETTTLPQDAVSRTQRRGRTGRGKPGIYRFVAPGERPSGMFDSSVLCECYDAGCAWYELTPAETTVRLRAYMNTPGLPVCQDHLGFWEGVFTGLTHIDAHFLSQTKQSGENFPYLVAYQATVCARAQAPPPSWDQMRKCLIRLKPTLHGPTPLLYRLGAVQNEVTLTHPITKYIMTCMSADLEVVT

As for `C=CC1CC1(NC(=O)[C@@H]1C[C@@H](NS(=O)(=O)c2cccc3c(N(C)C)cccc23)CN1C(=O)[C@@H](NC(=O)OC(C)(C)C)C(C)(C)C)C(=O)NS(=O)(=O)C1CC1` (stereo partly drawn) [Compound 49], in assay [1] (setting [3]), the IC50 is 0.15 to 15 µM. In addition, in assay [2] (Hepatitis C virus), the EC50 was > 15 µM.
For `C=CC1CC1(NC(=O)[C@@H]1C[C@@H](NC(=O)c2sc3ccccc3c2Cl)CN1C(=O)[C@@H](NC(=O)CC1CC1)C(C)(C)C)C(=O)NS(=O)(=O)C1CC1` (single isomer, unassigned) [Compound 3] the same measures were < 0.15 µM and 0.15 to 15 µM.
The like results for `C=CC1CC1(NC(=O)[C@@H]1C[C@@H](NCc2ccnc3ccccc23)CN1C(=O)[C@@H](NC(=O)OC(C)(C)C)C(C)(C)C)C(=O)NS(=O)(=O)C1CC1` (stereo partly drawn) [Compound 47] were, in that order, < 0.15 µM and > 15 µM.
`C=CC1CC1(NC(=O)[C@@H]1C[C@@H](NC(=O)c2coc3ccccc3c2=O)CN1C(=O)[C@@H](NC(=O)CC1CC1)C(C)(C)C)C(=O)NS(=O)(=O)C1CC1` (stereo partly drawn) [Compound 39]: in assay [1] (setting [3]), the IC50 is < 0.15 µM. Besides, the EC50 in assay [2] (Hepatitis C virus) fell in the range of 0.15 to 15 µM.
With `C=CC1CC1(NC(=O)[C@@H]1C[C@@H](NC(=O)OC2=NCc3ccccc32)CN1C(=O)[C@@H](NC(=O)CC1CC1)C(C)(C)C)C(=O)NS(=O)(=O)C1CC1` (stereo partly drawn) [Compound 52], in assay [1] (setting [4]), the IC50 is < 0.15 µM. Further, the EC50 in assay [2] (Hepatitis C virus) fell in the range of 0.15 to 15 µM.
The like results for `C=CC1CC1(NC(=O)[C@@H]1C[C@@H](NC(=O)n2c(=O)oc3ccccc32)CN1C(=O)[C@@H](NC(=O)CC1CC1)C(C)(C)C)C(=O)NS(=O)(=O)C1CC1` (stereo partly drawn) [Compound 53] were, in that order, < 0.15 µM and > 15 µM.
Regarding `C=CC1CC1(NC(=O)[C@@H]1C[C@@H](NC(=O)c2cc3ccccc3o2)CN1C(=O)[C@@H](NC(=O)CC1CC1)C(C)(C)C)C(=O)NS(=O)(=O)C1CC1` (stereo partly drawn) [Compound 27], the IC50 in assay [1] (setting [3]) was < 0.15 µM. Moreover, in assay [2] (Hepatitis C virus), the EC50 was in the range of 0.15 to 15 µM.
Regarding `C=CC1CC1(NC(=O)[C@@H]1C[C@@H](NC(=O)c2sc3ccccc3c2Cl)CN1C(=O)[C@@H](NC(=O)CC1CC1)C(C)(C)C)C(=O)NS(=O)(=O)C1CC1` (single isomer, unassigned) [Compound 4], the IC50 in assay [1] (setting [3]) is < 0.15 µM. Besides, the EC50 in assay [2] lay in the range of 0.15 to 15 µM.
On to `C=CC1CC1(NC(=O)[C@@H]1C[C@@H](NC(=O)c2cn(C)c3ccccc23)CN1C(=O)[C@@H](NC(=O)CC1CC1)C(C)(C)C)C(=O)NS(=O)(=O)C1CC1` (stereo partly drawn) [Compound 19], for which the IC50 in assay [1] (setting [4]) is < 0.15 µM. Further, the EC50 in assay [2] (Hepatitis C virus) was > 15 µM.
Take `C=CC1CC1(NC(=O)[C@@H]1C[C@@H](NC(=O)c2ccc3ccccc3n2)CN1C(=O)[C@@H](NC(=O)CC1CC1)C(C)(C)C)C(=O)NS(=O)(=O)C1CC1` (stereo partly drawn) [Compound 25]: the IC50 in assay [1] (setting [3]) was < 0.15 µM. Moreover, in assay [2] (Hepatitis C virus), the half-maximal effective concentration (EC50) lay within 0.15 to 15 µM.
Consider `C=CC1CC1(NC(=O)[C@@H]1C[C@@H](NC(=O)c2c(C)nc3ccccn23)CN1C(=O)[C@@H](NC(=O)CC1CC1)C(C)(C)C)C(=O)NS(=O)(=O)C1CC1` (stereo partly drawn) [Compound 18], for which, in assay [1] (setting [3]), the IC50 was in the range of 0.15 to 15 µM. Moreover, the EC50 in assay [2] was > 15 µM.
As for `C=CC1CC1(NC(=O)[C@@H]1C[C@@H](NC(=O)c2ccccc2-c2ccccc2)CN1C(=O)[C@@H](NC(=O)CC1CC1)C(C)(C)C)C(=O)NS(=O)(=O)C1CC1` (stereo partly drawn) [Compound 38], in assay [1] (setting [3]), the IC50 was in the range of 0.15 to 15 µM. The EC50 in assay [2] (Hepatitis C virus) was > 15 µM.
`C=CC1CC1(NC(=O)[C@@H]1C[C@@H](NC(=O)c2cn(CC)c3cc4c(cc3c2=O)OCO4)CN1C(=O)[C@@H](NC(=O)CC1CC1)C(C)(C)C)C(=O)NS(=O)(=O)C1CC1` (stereo partly drawn) [Compound 40]: the IC50 in assay [1] (setting [4]) was < 0.15 µM. Besides, the EC50 in assay [2] (Hepatitis C virus) was > 15 µM.
On to `C=CC1CC1(NC(=O)[C@@H]1C[C@@H](NC(=O)NCc2ccccc2)CN1C(=O)[C@@H](NC(=O)OC(C)(C)C)C(C)(C)C)C(=O)NS(=O)(=O)C1CC1` (stereo partly drawn) [Compound 44], for which the IC50 in assay [1] (setting [3]) fell in the range of 0.15 to 15 µM. The EC50 in assay [2] (Hepatitis C virus) is > 15 µM.
As for `C=CC1CC1(NC(=O)[C@@H]1C[C@@H](NC(=O)c2ccccc2OC)CN1C(=O)[C@@H](NC(=O)CC1CC1)C(C)(C)C)C(=O)NS(=O)(=O)C1CC1` (stereo partly drawn) [Compound 35], the IC50 in assay [1] (setting [4]) fell in the range of 0.15 to 15 µM. The EC50 in assay [2] (Hepatitis C virus) was > 15 µM.
Consider `C=CC1CC1(NC(=O)[C@@H]1C[C@@H](NC(=O)c2c(OCC)ccc3ccccc23)CN1C(=O)[C@@H](NC(=O)CC1CC1)C(C)(C)C)C(=O)NS(=O)(=O)C1CC1` (stereo partly drawn) [Compound 37], for which the IC50 in assay [1] (setting [3]) is 0.15 to 15 µM. In assay [2] (Hepatitis C virus), the EC50 was > 15 µM.
The like results for `C=CC1CC1(NC(=O)[C@@H]1C[C@@H](NC(=O)c2cc(Cl)nc3ccccc23)CN1C(=O)[C@@H](NC(=O)CC1CC1)C(C)(C)C)C(=O)NS(=O)(=O)C1CC1` (stereo partly drawn) [Compound 13] were, in that order, 0.15 to 15 µM and > 15 µM.
The like results for `C=CC1CC1(NC(=O)[C@@H]1C[C@@H](NC(=O)c2c(-c3ccc(Cl)cc3)cn3ccccc23)CN1C(=O)[C@@H](NC(=O)CC1CC1)C(C)(C)C)C(=O)NS(=O)(=O)C1CC1` (stereo partly drawn) [Compound 21] were, in that order, < 0.15 µM and 0.15 to 15 µM.

Source of the values: patent US7601686B2, “Hepatitis C virus inhibitors” (Bristol-Myers Squibb Company, priority 2005, dated 2009).
